Data: US10238688B2, “Combination therapies for bladder cancer” (GENEDIA BIOTECH CO. LTD., priority 2015, dated 2019)

What was measured:
Wnt pathway = assay: Cignal Finder dual-luciferase pathway reporter, Wnt; type: cell-based, human; set-up: key to Relative activity, Wnt reporter: firefly/renilla ratio, background (negative control) subtracted; details: for Relative activity, Wnt reporter: luc/Renluc relative to negative control reporter, single drug at 4 folds vs EH/Ci/Mi combination;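 as to digitalized pathway activity, Wnt: code −1 means repressed below 0.5-fold of 5637 cells or no-drug control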
Method: (§1) The pathway analysis was performed with Qiagen's Cignal Finder Pathway Reporter Array systems according to the manufacturer's instructions. The pathway-focused dual-luciferase reporter construct was a mixture of an inducible transcription factor responsive firefly luciferase reporter and constitutively expressing renilla construct. Transcriptional response element (TRE) sequence response elements to each specific transcriptional factor triggered by the different signaling pathways are positioned before the TATA box of firefly luciferase reporter gene. The extent of activity of the reporter reflects the level of activity of the particular signaling pathway. CMV controlled renilla expression vector is co-transfected into the cell as an internal control. Non-inducible reporter construct that lacks the transcriptional factor binding sequence and could not be induced by any transcription factors is used as a negative control. Cells transfected with CMV directed firefly luciferase reporter gene serve as a positive control. Briefly, cells seeded in 6-well plates were transfected with Cignal finder pathway arrays according to the manufacturer's instructions (Qiagen). Then cells were seeded onto 96-well plates. Ci (6000 ng/mL), Mi (800 ng/mL), or EH (1000 ng/mL) and Ci/Mi/EH combination (Ci, 1500 ng/mL, Mi, 800 ng/mL and EH, 1000 ng/m L) were then added to the cells 24 h post-transfection. After 6 h of incubation with the different drugs at 37° C., cells were lysed and a dual luciferase assay (for firefly and renilla luciferase) was performed using a PromegaGloMax 20/20 illuminometer. The firefly luciferase activities were normalized over the renilla luciferase activities after background activity determined by luciferase activities of negative controls was subtracted. A triple test of cell survival under these drug doses was also performed by MTT assay following 18 h incubation at 37° C. […]

Heat Shock pathway = assay: Cignal Finder dual-luciferase pathway reporter, Heat Shock; type: cell-based, human; set-up: key to Relative activity, Heat Shock reporter: firefly/renilla ratio, background (negative control) subtracted; details: for Relative activity, Heat Shock reporter: luc/Renluc relative to negative control reporter, single drug at 4 folds vs EH/Ci/Mi combination
Method: as §1, with “Ci (6000 ng/mL), Mi (800 ng/mL), or EH (1000 ng/mL) and Ci/Mi/EH combination (Ci, 1500 ng/mL, Mi, 800 ng/mL and EH, 1000 ng/m L) were then added to the cells 24 h post-transfection.” left out

MAPK/ERK pathway = assay: Cignal Finder dual-luciferase pathway reporter, MAPK/ERK; type: cell-based, human; details: for Relative activity, MAPK/ERK reporter: luc/Renluc relative to negative control reporter, single drug at 4 folds vs EH/Ci/Mi combination
Method: as §1

SV-HUC-1 = type: cell-based
Method: The clinical grade of the chemotherapeutics (NCI Dictionary of Cancer Terms) was provided by the First Affiliated Hospital of Harbin Medical University: Pirarubicin (Pi, Wanle, Shenzhen), Paclitaxel (Pa, Taiji, Sichuan), Adriamycin (Ad, Pfizer, Jiangsu), Epirubicin Hydrochloride (EH, Haizheng, Zhejiang), Hydroxycamptothecin (Hy, Lishizhen, Hubei), Cisplatin (Ci, Haosen, Jiangsu), Gemcitabine (Ge, Haosen, Jiangsu) and Mitomycin (Mi, Haizheng, Zhejiang). The drug induced cell death was determined by a thiazolyl […] (MTT, 490 nm reading) based cell proliferation assay in the cultured cells following treatment by various concentrations of drugs for 72 hours. The relative chemoresistance to each drug of all cell lines was calculated with the lowest IC50 as a reference. The overall chemoresistance of each cell line was described as “chemoresistance index”, the numerator of the total relative IC50 to all the drugs over the number of drugs to rank the overall resistance state of each cell line to the six chemotherapeutics collectively.
The relative IC50 (fold) of each drug of all nine cell lines was normalized to the lowest IC50 in the most sensitive cell line (FIG. 2G), to describe the single drug resistance of cell lines. The overall chemoresistance of each cell line, a “chemoresistance index” (the numerator of the total relative IC50 over the number of drugs) (FIG. 2G) were calculated to rank the overall resistance state of each cell line to this six chemotherapeutics.

ER Stress pathway = assay: Cignal Finder dual-luciferase pathway reporter, ER Stress; type: cell-based, human; details: for Relative activity, ER Stress reporter: luc/Renluc relative to negative control reporter, single drug at 4 folds vs EH/Ci/Mi combination
Method: as §1

COc1cccc2c1C(=O)c1c(O)c3c(c(O)c1C2=O)C[C@@](O)(C(=O)CO)C[C@@H]3[C@@H]1C[C@H](N)[C@@H](O)[C@H](C)O1 [EH, (8R,10S)-10-((2S,4S,5R,6S)-4-amino-5-hydroxy-6-methyltetrahydro-2H-pyran-2-yl)-6,8,11-trihydroxy-8-(2-hydroxyacetyl)-1-methoxy-7,8,9,10-tetrahydrotetracene-5,12-dione]
digitalized pathway activity, Wnt (Wnt pathway; 5637 cells): 0 (null (0) if neither of the above holds) | relative drug trigged pathway activity over the no-drug level, Wnt (Wnt pathway; 5637 cells): 1.19 fold | Relative activity, Wnt reporter (Wnt pathway; 5637 cells): 1.04 | digitalized pathway activity, Wnt (Wnt pathway; Biu87 cells): 0 (null (0) if neither of the above holds) | relative drug trigged pathway activity over the no-drug level, Wnt (Wnt pathway; Biu87 cells): 0.95 fold | Relative activity, Wnt reporter (Wnt pathway; Biu87 cells): 1.57 | digitalized pathway activity, Wnt (Wnt pathway; H-bc cells): 0 (null (0) if neither of the above holds) | relative drug trigged pathway activity over the no-drug level, Wnt (Wnt pathway; H-bc cells): 1.03 fold | Relative activity, Wnt reporter (Wnt pathway; H-bc cells): 1.10 | digitalized pathway activity, Wnt (Wnt pathway; SV-HUC-1 cells): 0 (null (0) if neither of the above holds) | relative drug trigged pathway activity over the no-drug level, Wnt (Wnt pathway; SV-HUC-1 cells): 1.05 fold | Relative activity, Wnt reporter (Wnt pathway; SV-HUC-1 cells): 1.30 | digitalized pathway activity, Wnt (Wnt pathway; UM-UC-3 cells): 0 (null (0) if neither of the above holds) | Relative activity, Wnt reporter (Wnt pathway; UM-UC-3 cells): 4.12 | relative drug trigged pathway activity over the no-drug level, Wnt (Wnt pathway; Um-Uc-3 cells): 1.15 fold | digitalized pathway activity, Heat Shock (Heat Shock pathway; 5637 cells): 0 (null (0) if neither of the above holds) | relative drug trigged pathway activity over the no-drug level, Heat Shock (Heat Shock pathway; 5637 cells): 1.04 fold | Relative activity, Heat Shock reporter (Heat Shock pathway; 5637 cells): 14.60 | digitalized pathway activity, Heat Shock (Heat Shock pathway; Biu87 cells): 0 (null (0) if neither of the above holds) | relative drug trigged pathway activity over the no-drug level, Heat Shock (Heat Shock pathway; Biu87 cells): 1.06 fold | Relative activity, Heat Shock reporter (Heat Shock pathway; Biu87 cells): 2.01 | digitalized pathway activity, Heat Shock (Heat Shock pathway; H-bc cells): 0 (null (0) if neither of the above holds) | relative drug trigged pathway activity over the no-drug level, Heat Shock (Heat Shock pathway; H-bc cells): 0.86 fold | Relative activity, Heat Shock reporter (Heat Shock pathway; H-bc cells): 3.13 | digitalized pathway activity, Heat Shock (Heat Shock pathway; SV-HUC-1 cells): 0 (null (0) if neither of the above holds) | relative drug trigged pathway activity over the no-drug level, Heat Shock (Heat Shock pathway; SV-HUC-1 cells): 0.91 fold | Relative activity, Heat Shock reporter (Heat Shock pathway; SV-HUC-1 cells): 36.00 | digitalized pathway activity, Heat Shock (Heat Shock pathway; UM-UC-3 cells): 0 (null (0) if neither of the above holds) | Relative activity, Heat Shock reporter (Heat Shock pathway; UM-UC-3 cells): 2.93 | relative drug trigged pathway activity over the no-drug level, Heat Shock (Heat Shock pathway; Um-Uc-3 cells): 0.67 fold | relative drug trigged pathway activity over the no-drug level, MAPK/ERK (MAPK/ERK pathway; 5637 cells): 2.26 fold | Relative activity, MAPK/ERK reporter (MAPK/ERK pathway; 5637 cells): 117.70 | digitalized pathway activity, MAPK/ERK (MAPK/ERK pathway; Biu87 cells): 0 (null (0) if neither of the above holds) | relative drug trigged pathway activity over the no-drug level, MAPK/ERK (MAPK/ERK pathway; Biu87 cells): 1.24 fold | Relative activity, MAPK/ERK reporter (MAPK/ERK pathway; Biu87 cells): 608.33 | digitalized pathway activity, MAPK/ERK (MAPK/ERK pathway; H-bc cells): 0 (null (0) if neither of the above holds) | relative drug trigged pathway activity over the no-drug level, MAPK/ERK (MAPK/ERK pathway; H-bc cells): 0.75 fold | Relative activity, MAPK/ERK reporter (MAPK/ERK pathway; H-bc cells): 95.16 | digitalized pathway activity, MAPK/ERK (MAPK/ERK pathway; SV-HUC-1 cells): 0 (null (0) if neither of the above holds) | relative drug trigged pathway activity over the no-drug level, MAPK/ERK (MAPK/ERK pathway; SV-HUC-1 cells): 0.95 fold | Relative activity, MAPK/ERK reporter (MAPK/ERK pathway; SV-HUC-1 cells): 225.00 | Relative activity, MAPK/ERK reporter (MAPK/ERK pathway; UM-UC-3 cells): 183.22 | relative drug trigged pathway activity over the no-drug level, MAPK/ERK (MAPK/ERK pathway; Um-Uc-3 cells): 1.29 fold | Single drug 4X Cell Survival (%) (SV-HUC-1; SV-HUC-1, ng/ml: EH 1000, Ci 6000, Mi 800, Pi 160, Pa 640, Ge 20, EH/Ci/Mi regimen): 61.89% | Cell survival 72 hours (SV-HUC-1; SV-HUC-1 cells, Table 4 (A)): 61.89% | ACS (%) (SV-HUC-1; SV-HUC-1 cells, Table 4 (B)): 61.89% | relative drug trigged pathway activity over the no-drug level, ER Stress (ER Stress pathway; 5637 cells): 3.26 fold | Relative activity, ER Stress reporter (ER Stress pathway; 5637 cells): 84.76 | relative drug trigged pathway activity over the no-drug level, ER Stress (ER Stress pathway; Biu87 cells): 1.66 fold | Relative activity, ER Stress reporter (ER Stress pathway; Biu87 cells): 36.36 | digitalized pathway activity, ER Stress (ER Stress pathway; H-bc cells): 0 (null (0) if neither of the above holds) | relative drug trigged pathway activity over the no-drug level, ER Stress (ER Stress pathway; H-bc cells): 1.38 fold | Relative activity, ER Stress reporter (ER Stress pathway; H-bc cells): 28.61 | relative drug trigged pathway activity over the no-drug level, ER Stress (ER Stress pathway; SV-HUC-1 cells): 2.93 fold | Relative activity, ER Stress reporter (ER Stress pathway; SV-HUC-1 cells): 300.00 | digitalized pathway activity, ER Stress (ER Stress pathway; UM-UC-3 cells): 0 (null (0) if neither of the above holds) | Relative activity, ER Stress reporter (ER Stress pathway; UM-UC-3 cells): 120.98 | relative drug trigged pathway activity over the no-drug level, ER Stress (ER Stress pathway; Um-Uc-3 cells): 1.48 fold
